Test results reported in the supplement of paper PMC11061612.

How the values were obtained:
Test in all cases: Bliss excess, mean over the matrix (fraction); higher = more synergy
[1] = system: A4-Fuk (B-Lymphoblastic Leukemia)
How it was run: (§1)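 Cell lines in DMEM/F12 or RPMI with 10% FBS were plated in 1536-well plates, held 24 hours at 37°C, 5% CO2, then given two-drug dose matrices for 72 hours (DMSO typically 0.2%). Viability was read by CellTiter-Glo 2.0 luminescence and scaled as inhibition from 0 (vehicle wells) to 1 (blank wells). Combination Emax is the second-highest inhibition in the matrix; Bliss excess is observed combination effect minus expected EA + EB − EA·EB, EA and EB being single-agent effects.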

[2] = system: ALL-SIL (T-Lymphoblastic Leukemia)
How it was run: as §1

[3] = system: CADO-ES1 (Ewing's Sarcoma)
How it was run: as §1

[4] = system: COLO-668 (Small Cell Lung Carcinoma)
How it was run: as §1

[5] = system: G-401 (Other Solid Carcinomas)
How it was run: as §1

[6] = system: HAL-01 (B-Lymphoblastic Leukemia)
How it was run: as §1

[7] = system: HCC2998 (Colorectal Carcinoma)
How it was run: as §1

Hey (Ovarian Carcinoma) = system: Hey (Ovarian Carcinoma)
How it was run: as §1

[8] = system: KGN (Other Solid Carcinomas)
How it was run: as §1

[9] = system: KOPN-8 (B-Lymphoblastic Leukemia)
How it was run: as §1

[10] = system: LC-1-sq (Squamous Cell Lung Carcinoma)
How it was run: as §1

[11] = system: MOG-G-UVW (Low Grade Glioma)
How it was run: as §1

[12] = system: NCI-H1838 (Lung Adenocarcinoma)
How it was run: as §1

[13] = system: NCI-H2122 (Lung Adenocarcinoma)
How it was run: as §1

[14] = system: NCI-H650 (Lung Adenocarcinoma)
How it was run: as §1

[15] = system: OACM5-1 (Esophageal Adenocarcinoma)
How it was run: as §1

[16] = system: SKN (Other Solid Carcinomas)
How it was run: as §1

[17] = system: SNU-387 (Hepatocellular Carcinoma)
How it was run: as §1

[18] = system: SW872 (Other Solid Carcinomas)
How it was run: as §1

| SMILES | Bliss excess [1] | Bliss excess [2] | Bliss excess [3] | Bliss excess [4] | Bliss excess [5] | Bliss excess [6] | Bliss excess [7] | Bliss excess (Hey (Ovarian Carcinoma)) | Bliss excess [8] | Bliss excess [9] | Bliss excess [10] | Bliss excess [11] | Bliss excess [12] | Bliss excess [13] | Bliss excess [14] | Bliss excess [15] | Bliss excess [16] | Bliss excess [17] | Bliss excess [18] |
| --- | --- | --- | --- | --- | --- | --- | --- | --- | --- | --- | --- | --- | --- | --- | --- | --- | --- | --- | --- |
| COc1cccc(OCCCN)c1-c1cc(Nc2cnc(C#N)cn2)n[nH]1 [Prexasertib] + O=C(c1cc(Cc2n[nH]c(=O)c3ccccc23)ccc1F)N1CCN(C(=O)C2CC2)CC1 [Olaparib] (first compound max 1 µM, 7x7, partner max 10 µM) | 0.0189 | -0.0222 | -0.0315 | -0.0759 | -0.166 | 0.0006 | -0.0432 | -0.0098 | -0.031 | -0.0105 | -0.0468 | -0.0035 | -0.153 | -0.0471 | -0.0442 | -0.054 | -0.0209 | 0.0083 | -0.018 |
| CCc1c2c(nc3ccc(O)cc13)-c1cc3c(c(=O)n1C2)COC(=O)[C@]3(O)CC [SN-38] + CN(C)CCCOc1ccc(-c2ccc3ncc4c(c3c2)n(C2CCOCC2)c(=O)n4C)cn1 [AZD0156] (first compound max 0.3 µM, 7x7, partner max 1 µM) | 0.0222 | -0.0475 | 0.0718 | -0.0198 | 0.0568 | 0.0451 | 0.253 | 0.0372 | -0.0065 | 0.0362 | 0.0912 | 0.0727 | -0.0741 | 0.151 | -0.0066 | -0.0642 | -0.0094 | -0.0373 | 0.0048 |
| CC(=O)Nc1cccc(-n2c(=O)n(C3CC3)c(=O)c3c(Nc4ccc(I)cc4F)n(C)c(=O)c(C)c32)c1 [Trametinib] + Cc1nc(-c2cn3c(n2)-c2ccc(-c4cnn(C(C)(C)C(N)=O)c4)cc2OCC3)n(C(C)C)n1 [Taselisib] (first compound max 1 µM, 7x7, partner max 10 µM) | 0.127 | 0.267 | -0.0253 | 0.289 | 0.0082 | 0.147 | 0.0408 | 0.0984 | 0.0972 | -0.101 | 0.24 | -0.0446 | 0.0104 | 0.0862 | 0.136 | 0.03 | -0.0353 | 0.185 | 0.0847 |
| CC1(C)CCC(CN2CCN(c3ccc(C(=O)NS(=O)(=O)c4ccc(NCC5CCOCC5)c([N+](=O)[O-])c4)c(Oc4cnc5[nH]ccc5c4)c3)CC2)=C(c2ccc(Cl)cc2)C1 [Venetoclax] + C1CN(CCC1(C(=O)N[C@@H](CCO)C2=CC=C(C=C2)Cl)N)C3=NC=NC4=C3C=CN4 [Capivasertib] (first compound max 1 µM, 7x7, partner max 3 µM) | -0.035 | -0.0261 | -0.0206 | 0.0066 | -0.105 | -0.0206 | -0.0133 | -0.0504 | -0.0592 | -0.0009 | -0.0136 | -0.0404 | -0.0097 | 0.0256 | -0.0395 | 0.0191 | -0.0299 | -0.0554 | -0.0588 |
| CC1(C)CCC(CN2CCN(c3ccc(C(=O)NS(=O)(=O)c4ccc(NCC5CCOCC5)c([N+](=O)[O-])c4)c(Oc4cnc5[nH]ccc5c4)c3)CC2)=C(c2ccc(Cl)cc2)C1 [Venetoclax] + C=CCn1c(=O)c2cnc(Nc3ccc(N4CCN(C)CC4)cc3)nc2n1-c1cccc(C(C)(C)O)n1 [AZD1775] (first compound max 1 µM, partner max 1 µM) | -0.0009 | 0.0792 | -0.0626 | 0.136 | -0.0898 | 0.0564 | -0.0423 | -0.0821 | 0.0003 | -0.0079 | -0.0039 | 0.0612 | -0.0334 | -0.0409 | -0.0422 | -0.056 | 0.0355 | -0.0041 | 0.005 |
| CC1(C)CCC(CN2CCN(c3ccc(C(=O)NS(=O)(=O)c4ccc(NCC5CCOCC5)c([N+](=O)[O-])c4)c(Oc4cnc5[nH]ccc5c4)c3)CC2)=C(c2ccc(Cl)cc2)C1 [Venetoclax] + CCN(CCO)CCCOc1ccc2c(Nc3cc(CC(=O)Nc4cccc(F)c4)[nH]n3)ncnc2c1 [AZD2811] (first compound max 1 µM, 7x7, partner max 1 µM) | 0.0781 | -0.0059 | 0.0054 | 0.0051 | -0.0473 | -0.0133 | -0.0403 | 0.0408 | -0.038 | 0.0169 | -0.0099 | -0.0186 | 0.0204 | -0.0579 | -0.0114 | -0.0406 | 0.0005 | -0.0422 | -0.0179 |
| CC1(C)CCC(CN2CCN(c3ccc(C(=O)NS(=O)(=O)c4ccc(NCC5CCOCC5)c([N+](=O)[O-])c4)c(Oc4cnc5[nH]ccc5c4)c3)CC2)=C(c2ccc(Cl)cc2)C1 [Venetoclax] + CN(C)CCCOc1ccc(-c2ccc3ncc4c(c3c2)n(C2CCOCC2)c(=O)n4C)cn1 [AZD0156] (first compound max 1 µM, 7x7, partner max 1 µM) | 0.0004 | -0.0012 | -0.0204 | -0.0022 | -0.0712 | 0.0439 | -0.0292 | -0.0255 | -0.0172 | -0.0498 | -0.0007 | 0.0408 | 0.0303 | 0.0112 | -0.0194 | -0.0017 | -0.0205 | -0.028 | 0.0025 |
| CC1(C)CCC(CN2CCN(c3ccc(C(=O)NS(=O)(=O)c4ccc(NCC5CCOCC5)c([N+](=O)[O-])c4)c(Oc4cnc5[nH]ccc5c4)c3)CC2)=C(c2ccc(Cl)cc2)C1 [Venetoclax] + COc1cc(Nc2ncc3c(n2)-c2ccc(Cl)cc2C(c2c(F)cccc2OC)=NC3)ccc1C(=O)O [Alisertib] (first compound max 1 µM, 7x7, partner max 10 µM) | -0.026 | 0.0202 | 0.032 | 0.066 | -0.0135 | 0.121 | 0.0056 | -0.0449 | -0.0167 | 0.036 | -0.0116 | -0.0265 | -0.0183 | -0.0572 | -0.0361 | 0.0758 | -0.0051 | -0.0456 | 0.0428 |
| CC1(C)CCC(CN2CCN(c3ccc(C(=O)NS(=O)(=O)c4ccc(NCC5CCOCC5)c([N+](=O)[O-])c4)c(Oc4cnc5[nH]ccc5c4)c3)CC2)=C(c2ccc(Cl)cc2)C1 [Venetoclax] + C[C@@H]1COCCN1C2=NC(=NC(=C2)C3(CC3)[S@](=N)(=O)C)C4=C5C=CNC5=NC=C4 [AZD6738] (first compound max 1 µM, 7x7, partner max 10 µM) | 0.0028 | -0.0217 | 0.0118 | 0.032 | -0.0944 | 0.106 | -0.0423 | -0.0378 | -0.0601 | 0.0289 | -0.0095 | -0.0672 | -0.0508 | -0.0137 | -0.0839 | 0.0115 | -0.0654 | -0.0363 | 0.0001 |
| CC1(C)CCC(CN2CCN(c3ccc(C(=O)NS(=O)(=O)c4ccc(NCC5CCOCC5)c([N+](=O)[O-])c4)c(Oc4cnc5[nH]ccc5c4)c3)CC2)=C(c2ccc(Cl)cc2)C1 [Venetoclax] + C[C@@H](Nc1cc(F)cc(F)c1)c1cc(C(=O)N(C)C)cc2c(=O)cc(N3CCOCC3)oc12 [AZD8186] (first compound max 1 µM, 7x7, partner max 3 µM) | -0.0046 | 0.0344 | 0.117 | 0.0418 | -0.0275 | 0.0246 | -0.0317 | -0.0286 | -0.0296 | -0.0088 | -0.0254 | -0.0111 | -0.031 | 0.0055 | -0.0257 | 0.0321 | -0.023 | -0.0264 | -0.0247 |
| CC1(C)CCC(CN2CCN(c3ccc(C(=O)NS(=O)(=O)c4ccc(NCC5CCOCC5)c([N+](=O)[O-])c4)c(Oc4cnc5[nH]ccc5c4)c3)CC2)=C(c2ccc(Cl)cc2)C1 [Venetoclax] + Cc1cc2ncnn2cc1Nc1ncc2c(n1)n(C1CCOCC1)c(=O)n2C [AZD7648] (first compound max 1 µM, 7x7, partner max 10 µM) | -0.0185 | -0.0022 | -0.0223 | 0.0355 | -0.061 | -0.022 | -0.0314 | -0.0604 | -0.0339 | 0.0037 | 0.0004 | -0.0482 | 0.0538 | 0.0311 | -0.0489 | -0.0269 | -0.172 | -0.0413 | -0.0599 |
| CC1(C)CCC(CN2CCN(c3ccc(C(=O)NS(=O)(=O)c4ccc(NCC5CCOCC5)c([N+](=O)[O-])c4)c(Oc4cnc5[nH]ccc5c4)c3)CC2)=C(c2ccc(Cl)cc2)C1 [Venetoclax] + Cn1cnc2c(F)c(Nc3ccc(Br)cc3Cl)c(C(=O)NOCCO)cc21 [Selumetinib] (first compound max 1 µM, 7x7, partner max 3 µM) | 0.0163 | 0.0035 | -0.0596 | 0.116 | -0.0264 | 0.0009 | -0.0065 | -0.0238 | -0.0406 | 0.113 | -0.0135 | 0.0564 | -0.0013 | 0.0375 | -0.0217 | 0.0243 | -0.0664 | -0.0601 | -0.0158 |
